Results on 3 molecules are retold here after patent US20250019385A1, “SPIROCYCLIC ANNULATED 2-AMINO-3-CYANO THIOPHENES AND DERIVATIVES FOR THE TREATMENT OF CANCER” (Boehringer Ingelheim International GmbH, priority 2023, published 2025).

Molecules are shown by their SMILES. Values after ≈ are worked out from the molar mass of the structure shown.

Sequence of KRAS (G12D)::SOS1 protein-protein interaction (P01116 other isoform, or with tags, fused parts or gaps G12D): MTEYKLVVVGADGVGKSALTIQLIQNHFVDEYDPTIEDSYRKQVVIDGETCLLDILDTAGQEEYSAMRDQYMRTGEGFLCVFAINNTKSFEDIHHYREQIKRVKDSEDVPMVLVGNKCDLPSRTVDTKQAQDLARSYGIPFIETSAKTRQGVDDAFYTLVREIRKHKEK

System in one series: not listed separately
Put plainly: Solubility measurement (DMSO solution precipitation method). In kind it is physicochemical. Conditions: aqueous buffer, kinetic from dmso stock, McIlvaine buffer pH 4.5, 24 h, read-out: solubility pH 4.5. As for the experimental part: A 10 mM DMSO stock solution of a test compound is used to determine its aq. solubility. The DMSO solution is diluted with an aq. medium (McIlvaine buffer with pH=4.5 or 6.8) to a final concentration of 250 μM. After 24 h of shaking at ambient temperature a potentially formed precipitate is removed by filtration. The concentration of the test compound in the filtrate is determined by LC-UV methods by calibrating the signal to the signal of a reference solution with complete dissolution of the test compound in acetonitrile/water (1:1) with known concentration.
As usually defined, the solubility is how much of the substance goes into solution per volume. As for `CC(C)n1c(=O)n([C@@H]2CCOC2)c2nc(-c3onc4c3CCC[C@@]43CCCc4sc(N)c(C#N)c43)nc(O[C@@H](C)[C@@H]3CCCN3C)c21` [I-32], the solubility at 24 h was above 155 µg/mL.

With `C[C@H](Oc1nc(-c2onc3c2CCC[C@@]32CCCc3sc(N)c(C#N)c32)nc2c1n(C)c(=O)n2[C@@H]1CC2CCC1O2)[C@@H]1CCCN1C` (stereo partly drawn) [I-18], the solubility at 24 h was above 151 µg/mL.

Turning to `C[C@H](Oc1nc(-c2onc3c2CCC[C@@]32CCCc3sc(N)c(C#N)c32)nc2c1n(C)c(=O)n2[C@@H]1CCOC1)[C@@H]1CCCN1C` [I-20], the solubility at 24 h was above 151 µg/mL.

Still in this series, the particulars now being: aqueous buffer, kinetic from dmso stock, McIlvaine buffer pH 6.8, 24 h, read-out: solubility pH 6.8.
Take `CC(C)n1c(=O)n([C@@H]2CCOC2)c2nc(-c3onc4c3CCC[C@@]43CCCc4sc(N)c(C#N)c43)nc(O[C@@H](C)[C@@H]3CCCN3C)c21` [I-32]: the solubility at 24 h was 63 µg/mL (≈ 95.6 µM).

For the molecule `C[C@H](Oc1nc(-c2onc3c2CCC[C@@]32CCCc3sc(N)c(C#N)c32)nc2c1n(C)c(=O)n2[C@@H]1CC2CCC1O2)[C@@H]1CCCN1C` (stereo partly drawn) [I-18], the solubility at 24 h came to 97 µg/mL (≈ 148 µM).

In the case of `C[C@H](Oc1nc(-c2onc3c2CCC[C@@]32CCCc3sc(N)c(C#N)c32)nc2c1n(C)c(=O)n2[C@@H]1CCOC1)[C@@H]1CCCN1C` [I-20], the solubility at 24 h was above 154 µg/mL.

The subject of another series is LOVO cells. Put plainly: LOVO CTG proliferation assay (120 h) (CRC, G13D). In kind it is cell-based. Conditions: Homo sapiens. As for the experimental part: (§1) LOVO cells (ATCC No. CCL-229) are dispensed into black 384-well plates, flat and clear bottom (Greiner, PNr. 781091) at a density of 1000 cells per well in 60 μl DMEM (Sigma D6429)+10% FCS (fetal calf serum, HyClone, SH30084.03). Cells are incubated overnight at 37° C. in a humidified tissue culture incubator at 5% CO2. Compounds (10 mM stock in DMSO) are added at logarithmic dose series using the ECHO acoustic liquid handler system (Beckman Coulter), normalizing for added DMSO and including DMSO controls. All compound treatments are performed in technical duplicates. For the TO time point measurement, untreated cells are analyzed at the time of compound addition. Plates are incubated for 120 h, and cell viability is measured using CellTiter-Glo luminescent cell viability reagent (Promega product code G7570). Viability (stated as percent of control) is defined as relative luminescence units RLU of each well divided by the RLU of cells in DMSO controls. IC50 values are determined from viability measurements by non-linear regression using a four-parameter model.
(§2) IC50 values of representative compounds according to the invention measured with these assays in the indicated cell lines are presented in Table 46.
Usually IC50 stands for the concentration at which inhibition is half-maximal. The low end stands for higher potency, the high end for lower potency. For `CC(C)n1c(=O)n([C@@H]2CCOC2)c2nc(-c3onc4c3CCC[C@@]43CCCc4sc(N)c(C#N)c43)nc(O[C@@H](C)[C@@H]3CCCN3C)c21` [I-32], half-maximal inhibition (IC50) was put at 25 nM.

On to `C[C@H](Oc1nc(-c2onc3c2CCC[C@@]32CCCc3sc(N)c(C#N)c32)nc2c1n(C)c(=O)n2[C@@H]1CC2CCC1O2)[C@@H]1CCCN1C` (stereo partly drawn) [I-18], for which 49 nM corresponded to half-maximal inhibition (IC50).

For the molecule `C[C@H](Oc1nc(-c2onc3c2CCC[C@@]32CCCc3sc(N)c(C#N)c32)nc2c1n(C)c(=O)n2[C@@H]1CCOC1)[C@@H]1CCCN1C` [I-20], the IC50 came out at 6 nM.

The next series concerns NCI-H358 cells. Description: NCI-H358 CTG proliferation assay (120 h) (NSCLC, G12C). In kind it is cell-based. Conditions: Homo sapiens. As for the experimental part:
as §1, with “NCI-H358” for “LOVO”, “CRL-5807)” for “CCL-229)”, “200” for “1000”, “RPMI-1640 ATCC-Formulation (Gibco #A10491)+10%” for “DMEM (Sigma D6429)+10%”, “serum).” for “serum, HyClone, SH30084.03).”
as §2
Regarding `CC(C)n1c(=O)n([C@@H]2CCOC2)c2nc(-c3onc4c3CCC[C@@]43CCCc4sc(N)c(C#N)c43)nc(O[C@@H](C)[C@@H]3CCCN3C)c21` [I-32], it took 32 nM to reach half-maximal inhibition (IC50). That is a double-digit nanomolar value.

For the molecule `C[C@H](Oc1nc(-c2onc3c2CCC[C@@]32CCCc3sc(N)c(C#N)c32)nc2c1n(C)c(=O)n2[C@@H]1CC2CCC1O2)[C@@H]1CCCN1C` (stereo partly drawn) [I-18], the IC50 was determined as 239 nM. Against the preceding molecule, the IC50 is about 7.5-fold higher.

`C[C@H](Oc1nc(-c2onc3c2CCC[C@@]32CCCc3sc(N)c(C#N)c32)nc2c1n(C)c(=O)n2[C@@H]1CCOC1)[C@@H]1CCCN1C` [I-20] yielded an IC50 of 4 nM.

The next series has as its target KRAS (G12D)::SOS1 protein-protein interaction (Homo sapiens (Human), UniProt P01116, G12D). Put plainly: KRAS::SOS1 AlphaScreen binding assay (KRAS G12D). Conditions: GDP. The source says: This assay can be used to examine the potency with which compounds according to the invention binding to (mutated) KRAS inhibit the protein-protein interaction between SOS1 and (mutated) KRAS e.g. KRAS G12C, KRAS G12D. […] Low IC50 values in this assay setting are indicative of strong inhibition of protein-protein interaction between SOS1 and KRAS:
These assays measure the inhibitory effect of compounds on KRAS mutant protein-protein interactions using the Alpha Screen technology by Perkin Elmer.
The following (mutant) enzyme forms of KRAS and interacting proteins are used in these assays at the given concentrations:
KRAS (G12D) 1-169, N-terminal 6His-tag, C-terminal avi-tag (Xtal BioStructures, Inc.); final assay concentration 10 nM and SOS1 564-1049, N-terminal 229 GST-tag, TEV cleavage site (Viva Biotech Ltd); final assay concentration 5 nM;
Test compounds dissolved in DMSO are dispensed onto assay plates (Proxiplate 384 PLUS, white, PerkinElmer; 6008289) using an Access Labcyte Workstation with the Labcyte Echo 55x. For the chosen highest assay concentration of 100 μM, 150 nL of compound solution are transferred from a 10 mM DMSO compound stock solution. A series of eleven fivefold dilutions per compound are transferred to the assay plate, compound dilutions are tested in duplicates. DMSO are added as backfill to a total volume of 150 nL.
The assays run on a fully automated robotic system in a darkened room below 100 Lux. To 150 nl of compound dilution 10 μl of a mix including KRAS mutant protein, SOS1 (final assay concentrations see above) and GDP nucleotide (Sigma G7127; final assay concentration 10 μM) in assay buffer (1×PBS, 0.1% BSA, 0.05% Tween 20) are added into columns 1-24.
After 30 minutes incubation time 5 μl of Alpha Screen bead mix in assay buffer are added into columns 1-23. Bead mix consists of AlphaLISA Glutathione Acceptor Beads (PerkinElmer, Cat No AL109) and AlphaScreen Streptavidin Donor Beads (PerkinElmer Cat No 6760002) in assay buffer at a final assay concentration of 10 μg/mL each.
Plates are kept at room temperature in a darkened incubator. After an additional 60 minutes incubation time the signal is measured in a PerkinElmer Envision HTS Multilabel Reader using the AlphaScreen specs from PerkinElmer.
Each plate contains up to 16 wells of a negative control depending on the dilution procedure (platewise or serial) (DMSO instead of test compound; with KRAS mutant::SOS1 GOP mix and bead mix; column 23) and 16 wells of a positive control (DMSO instead of test compound; with KRAS mutant::SOS1 GOP mix w/o bead mix; column 24).
As internal control known inhibitors of KRAS mutant::SOS1 interaction can be measured on each compound plate.
IC50 values are calculated and analyzed with Boehringer Ingelheim's MEGALAB C50 application using a 4 parametric logistic model.
Tables of example compounds disclosed herein contain IC50 values determined using the above assays (see Table 43).
In turn, `CC(C)n1c(=O)n([C@@H]2CCOC2)c2nc(-c3onc4c3CCC[C@@]43CCCc4sc(N)c(C#N)c43)nc(O[C@@H](C)[C@@H]3CCCN3C)c21` [I-32] showed a half-maximal inhibitory concentration (IC50) of 2 nM.

Regarding `C[C@H](Oc1nc(-c2onc3c2CCC[C@@]32CCCc3sc(N)c(C#N)c32)nc2c1n(C)c(=O)n2[C@@H]1CC2CCC1O2)[C@@H]1CCCN1C` (stereo partly drawn) [I-18], the IC50 was found to be 8 nM.

`C[C@H](Oc1nc(-c2onc3c2CCC[C@@]32CCCc3sc(N)c(C#N)c32)nc2c1n(C)c(=O)n2[C@@H]1CCOC1)[C@@H]1CCCN1C` [I-20] came in with an IC50 of 1 nM.

System in a further series: not listed separately
Description: Plasma protein binding assay (PPB), equilibrium dialysis. In kind it is in vitro ADME. Conditions: bovine, 10% FCS in PBS, read-out: PPB 10% FCS (% fu). As for the experimental part:
Binding of test compounds to plasma was determined using equilibrium dialysis (ED) and quantitative mass spectrometry interfaced with liquid chromatography (LC-MS). In brief, ED was performed with dialysis devices consisting of two chambers separated by a semipermeable membrane with a molecular weight cut-off of 5-10 kg/mol. One chamber was filled with 10% FCS in PBS containing 1-10 μmol/L test compound and the other chamber was filled with phosphate-buffer saline (PBS) with or without dextran. The dialysis chamber was incubated for 3-5 hours at 37° C. After incubation, protein was precipitated from aliquots of each chamber and the concentration of test compound in the supernatant of the plasma-containing compartment (cserum) and of the buffer-containing compartment (cbuffer) was determined by LC-MS. The fraction of unbound test compound (not bound to plasma) (f) was calculated according to the following equation: […]
Background: In equilibrium dialysis only unbound substance equilibrates across the membrane.
As for `CC(C)n1c(=O)n([C@@H]2CCOC2)c2nc(-c3onc4c3CCC[C@@]43CCCc4sc(N)c(C#N)c43)nc(O[C@@H](C)[C@@H]3CCCN3C)c21` [I-32], the fraction unbound was determined as 0.07.

On to `C[C@H](Oc1nc(-c2onc3c2CCC[C@@]32CCCc3sc(N)c(C#N)c32)nc2c1n(C)c(=O)n2[C@@H]1CC2CCC1O2)[C@@H]1CCCN1C` (stereo partly drawn) [I-18], for which the fraction unbound was determined as 0.2.

In the case of `C[C@H](Oc1nc(-c2onc3c2CCC[C@@]32CCCc3sc(N)c(C#N)c32)nc2c1n(C)c(=O)n2[C@@H]1CCOC1)[C@@H]1CCCN1C` [I-20], the fraction unbound was determined as 0.28.
